Publication PMC7539012, “Hyperphosphorylated tau aggregation and cytotoxicity modulators screen identified prescription drugs linked to Alzheimer's disease and cognitive functions” (Scientific Reports, 2020)
Structures can show the parent of a compound that is named as a salt.

These compounds were tested on T1, 1N4R p-tau (assay: p-tau aggregation modulator screen of 1280-compound library (ThS fluorescence net change over 16 h)). Conditions: not given.
T1 construct: made in house; host or cells: E. coli (PIMAX system)
Assay type: biochemical
Set-up: key to PTAI>3SD: *: PTAI>3SD
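Wherever ThS net change is given: 30 µM compound with 6 µM p-tau over 16 h.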

Compound	ThS net change
C[C@]12CC[C@@H](O)C[C@@H]1CC[C@@H]1[C@@H]2CC[C@]2(C)C(=O)CC[C@@H]12 [Androsterone]	449
CC(C)C[C@H]1C(=O)N2CCC[C@H]2[C@]2(O)O[C@](NC(=O)[C@@H]3C=C4c5cccc6[nH]c(Br)c(c56)C[C@H]4N(C)C3)(C(C)C)C(=O)N12.CS(=O)(=O)O [Bromocryptine mesylate]	296
COc1ccc([C@@H]2CC(=O)c3c(O)cc(O[C@@H]4O[C@H](CO[C@@H]5O[C@@H](C)[C@H](O)[C@@H](O)[C@H]5O)[C@@H](O)[C@H](O)[C@H]4O)cc3O2)cc1O [Hesperidin]	425
COc1cccc(N(C)C(=S)Oc2ccc3c(c2)CCCC3)n1 [Liranaftate]	435
CCN(CC)C(=O)[C@]1(c2ccccc2)C[C@@H]1CN.Cl [Milnacipran hydrochloride]	415

Same assay, conditions: 1280-compound library screen; ThS fluorescence net change over 16 h

Compound	ThS net change
Cn1nnc2c(C(N)=O)ncn2c1=O [Temozolomide]	380
CN(C)CCOC(=O)C(c1ccccc1)C1(O)CCCC1 (centres unmarked) [Cyclopentolate hydrochloride]	412
C=C1/C(=C\C=C2/CCC[C@]3(C)[C@@H]([C@H](C)/C=C/[C@@H](O)C4CC4)CC[C@@H]23)C[C@@H](O)C[C@@H]1O [Calcipotriene]	407
NC(=O)CN1CCCC1=O [Piracetam]	406
COC(=O)CCc1ccc(OCC(O)CNC(C)C)cc1 (centres unmarked) [Esmolol hydrochloride]	400
O=c1[nH]c2ccccc2n1CCCN1CCC(n2c(=O)[nH]c3cc(Cl)ccc32)CC1 [Domperidone]	392
CC[C@@H](C(N)=O)N1CCCC1=O [Levetiracetam]	407
CCOC(=O)[C@H](CCc1ccccc1)N[C@H]1CCc2ccccc2N(CC(=O)O)C1=O [Benazepril HCl]	382
CNCCc1ccccn1.CS(=O)(=O)O.CS(=O)(=O)O [Betahistine mesylate]	378
Nc1c2c(nc3ccccc13)CCCC2 [Tacrine hydrochloride]	405
COc1ccccc1OCCNCC(O)COc1cccc2[nH]c3ccccc3c12 (centres unmarked) [Carvedilol]	394
Nc1cc(-c2ccncc2)c[nH]c1=O [Amrinone]	410
Clc1ccccc1C(c1ccccc1)(c1ccccc1)n1ccnc1 [Clotrimazole]	396
CC=CC(=O)N(CC)c1ccccc1C (mixture of isomers) [Crotamiton]	386

Same assay, conditions: 1280-compound library screen; […]

Compound	ThS net change
C#CCN(C)[C@H](C)Cc1ccccc1 [Selegiline hydrochloride]	388
O.O=C1C(O)=C(O)C(=O)C(O)=C1O [Tetrahydroxy-1,4-quinone hydrate]	391
CNCC(O)c1ccc(O)cc1 (racemic) [(+,-)-Synephrine]	410
CCC(COC(=O)c1cc(OC)c(OC)c(OC)c1)(c1ccccc1)N(C)C (centres unmarked) [Trimebutine]	406
O=C(O)CCCc1ccc(N(CCCl)CCCl)cc1 [Chlorambucil]	386
CC(=O)OC1CN2CCC1CC2 (centres unmarked) [Aceclidine Hydrochloride]	409
CC(=O)OCC1=C(C(=O)O)N2C(=O)[C@@H](N)[C@H]2SC1 [Cephalosporanic acid, 7-amino]	378
C[C@]12CC[C@@H]3c4ccc(OC(=O)N(CCCl)CCCl)cc4CC[C@H]3[C@@H]1CC[C@@H]2O [Estramustine]	407

Same assay, conditions: flag: p-tau aggregation inhibitor, ThS net change more than 3 SD from mean

Compound	PTAI>3SD
OCCN(CCO)c1nc(N2CCCCC2)c2nc(N(CCO)CCO)nc(N3CCCCC3)c2n1 [Dipyridamole]	*

Same assay, conditions: library screen, ThS fluorescence net change over 16 h with p-tau

Compound	ThS net change
CCCCCCCCCCCCCCCC[N+](C)(C)CCN(Cc1ccc(OC)cc1)c1ncccn1 [Thonzonium bromide]	312
CC1=C(CC(=O)O)c2cc(F)ccc2/C1=C\c1ccc([S+](C)[O-])cc1 (centres unmarked) [Sulindac]	288
CN(C)CC/C=C1\c2ccccc2CSc2ccccc21 [Dosulepin hydrochloride]	311
CCN(CC)CCNC(=O)c1cc(Cl)c(N)cc1OC.Cl [Metoclopramide monohydrochloride]	299
OCCN(CCO)c1nc(N2CCCCC2)c2nc(N(CCO)CCO)nc(N3CCCCC3)c2n1 [Dipyridamole]	-5843
Cc1scc2c1N(C(=O)CN1CCN(C)CC1)c1ccccc1NC2=O [Telenzepine dihydrochloride]	326
COc1ccc(CCN2CCC(Nc3nc4ccccc4n3Cc3ccc(F)cc3)CC2)cc1 [Astemizole]	265

Same assay, conditions: p-tau aggregation modulator screen of 1280-compound library; ThS fluorescence net change

Compound	ThS net change
CCN1CCN(C(=O)N[C@@H](C(=O)N[C@@H]2C(=O)N3C(C(=O)O)=C(CSc4nnnn4C)CS[C@H]23)c2ccc(O)cc2)C(=O)C1=O [Cefoperazone dihydrate]	363
Cc1c(Nc2ncccc2C(=O)O)cccc1C(F)(F)F [Flunixin meglumine]	354
CN1C[C@H](CNC(=O)OCc2ccccc2)C[C@@H]2c3cccc4c3c(cn4C)C[C@H]21 [Metergoline]	349
C[C@]12C=CC(=O)C=C1CC[C@@H]1[C@@H]2[C@@H](O)C[C@@]2(C)[C@H]1CC[C@]2(O)C(=O)CO [Prednisolone]	351
CS(=O)(=O)O.OC(CCN1CCCCC1)(c1ccccc1)c1ccccc1 [Pridinol methanesulfonate salt]	350
Cc1cc(NS(=O)(=O)c2ccc(N)cc2)no1 [Sulfamethoxazole]	376
Cc1c(N(C)CS(=O)(=O)[O-])c(=O)n(-c2ccccc2)n1C.[Na+] [Dipyrone]	363
O=C(O)c1cc(=O)c2c(OCC(O)COc3cccc4oc(C(=O)O)cc(=O)c34)cccc2o1 [Cromolyn disodium salt]	360
NC(=O)N/N=C/c1ccc([N+](=O)[O-])o1 [Nitrofural]	365
CCN(CC)CCNC(=O)c1cc(S(C)(=O)=O)ccc1OC [Tiapride hydrochloride]	349
CNCCCN1c2ccccc2CCc2ccccc21 [Desipramine hydrochloride]	365
C[C@@H]1CC[C@H]2[C@@H](C)C(=O)O[C@@H]3O[C@@]4(C)CC[C@@H]1[C@]32OO4 [Artemisinin]	356

Same assay, conditions: p-tau aggregation modulator screen of 1280-compound library; […]

Compound	ThS net change
COc1ccc(C(=O)NCc2cccnc2)cc1C(=O)NCc1cccnc1.O [Picotamide monohydrate]	355
O=P1(NCCCl)OCCCN1CCCl (centres unmarked) [Ifosfamide]	374
CS(=O)(=O)O.O.O=C(O[C@@H]1C[C@@H]2C[C@@H]3C[C@H](C1)N2CC3=O)c1c[nH]c2ccccc12 [Dolasetron mesilate]	353
CC(=O)[C@@]12O[C@](C)(c3ccccc3)O[C@@H]1C[C@H]1[C@@H]3CCC4=CC(=O)CC[C@]4(C)[C@H]3CC[C@@]12C [Algestone acetophenide]	336
Br.COc1ccc2c(c1)[C@]13CCCC[C@@H]1[C@H](C2)N(C)CC3.O	372
COc1cccc([C@@]2(O)CCCC[C@@H]2CN(C)C)c1.Cl [Tramadol hydrochloride]	373
CC/C(=C(\c1ccccc1)c1ccc(OCCN(C)C)cc1)c1ccccc1 [Tamoxifen citrate]	336
CN(CCCCCCCCCCN(C)C(=O)Oc1cccc([N+](C)(C)C)c1)C(=O)Oc1cccc([N+](C)(C)C)c1 [Demecarium bromide]	377

Same assay, conditions: p-tau aggregation modulator screen of the compound library, ThS fluorescence net change

Compound	ThS net change
O=C(CCNNC(=O)c1ccncc1)NCc1ccccc1 [Nialamide]	470
CN1C(C(=O)Nc2ccccn2)=C(O)c2sccc2S1(=O)=O [Tenoxicam]	416
CN1CCN(c2c(F)cc3c(=O)c(C(=O)O)cn(CCF)c3c2F)CC1 [Fleroxacin]	424
CC1=C(C(=O)O)N2C(=O)[C@@H](NC(=O)[C@H](N)c3ccc(O)cc3)[C@H]2SC1 [Cefadroxil]	413
CNCC(O)c1ccc(O)c(O)c1 (centres unmarked) [Racepinephrine HCl]	453
CC(C)(CO)[C@@H](O)C(=O)NCCCO [Panthenol (D)]	429
C#C[C@]1(O)CC[C@H]2[C@@H]3CCc4cc(O)ccc4[C@H]3CC[C@@]21C [Ethinylestradiol]	451
CCN1CCC[C@H]1CNC(=O)c1c(OC)ccc(Br)c1OC.Cl [Remoxipride Hydrochloride]	460
CC(C)(C)NC(=O)[C@@H]1C[C@@H]2CCCC[C@@H]2CN1C[C@@H](O)[C@H](Cc1ccccc1)NC(=O)[C@H](CC(N)=O)NC(=O)c1ccc2ccccc2n1 [Saquinavir mesylate]	568
CCc1cccc2c3c([nH]c12)C(CC)(CC(=O)O)OCC3 (centres unmarked) [Etodolac]	443
Tyloxapol	577
OCCOCCN1CCN(C2=Nc3ccccc3Sc3ccccc32)CC1 [Quetiapine hemifumarate]	424
CCN1CCCC1CNC(=O)c1cc(S(=O)(=O)CC)c(N)cc1OC (centres unmarked) [Amisulpride]	428
COCCCOc1ccnc(C[S+]([O-])c2nc3ccccc3[nH]2)c1C (centres unmarked) [Rabeprazole Sodium salt]	420
CCC1(c2ccccc2)NC(=O)N(C)C1=O (centres unmarked) [Mephenytoin]	453
CC(C)OC(=O)C(C)(C)Oc1ccc(C(=O)c2ccc(Cl)cc2)cc1 [Fenofibrate]	531
C#C[C@]1(O)CC[C@H]2[C@@H]3CCC4=CC(=O)CC[C@@H]4[C@H]3CC[C@@]21CC [Norgestrel-(-)-D]	424
CCc1nn(CCCN2CCN(c3cccc(Cl)c3)CC2)c(=O)n1CCOc1ccccc1 [Nefazodone HCl]	454
CC1(C)O[C@@H]2C[C@H]3[C@@H]4CCC5=CC(=O)C=C[C@]5(C)[C@H]4[C@@H](O)C[C@]3(C)[C@]2(C(=O)CO)O1 [Desonide]	440
CC(C)C(=O)c1c(C(C)C)nn2ccccc12 [Ibudilast]	444
O=S(=O)(O)CCS [Mesna]	424
CC(=O)N[C@@H](CC(C)C)C(=O)O [N-Acetyl-L-leucine]	417
